# Measured values published in paper PMC9499365, “Stereoselective Synthesis and Application of Gibberellic Acid-Derived Aminodiols” (International Journal of Molecular Sciences, 2022).
# Assays:
# [1] = tested on: A2780 ovarian cancer cells; assay: MTT antiproliferative assay, A2780; type: cell-based, human; settings: for inhibition at 10 µM / inhibition at 30 µM: Homo sapiens, read-out: Growth inhibition (%) ± SEM; for inhibition at 10 µM / inhibition at 30 µM / Growth inhibition (%) ± SEM: 72 h
# Protocol: (§1) The in vitro antiproliferative activities of the synthesized aminodiols 4–38 against a panel of different human cancer cell lines of gynecological origin, including cervical (SiHA and HeLa), breast (MCF7 and MDA-MB-231), and ovary (A2780) cancers were assayed by the MTT method. […] Cisplatin, a clinically applied anticancer agent, was used as a reference compound and the results are summarized in Figure 3 and Table S1 in Supporting Information. […] On the other hand, none of the prepared azole derivatives exerted relevant activity.
# (§2) The growth-inhibitory effects of the gibberellic acid-based aminodiol derivatives were determined by a standard MTT (3-(4,5-dimethylthiazol-2-yl)-2,5-diphenyltetrazolium bromide) assay on a panel containing five cell lines, including Hela and Siha (cervical cancers); MDA-MB-231 and MCF-7 (breast cancers); and A2780 ovarian cancer cells. The most promising agents were additionally tested against NIH/3T3 mouse embryo fibroblast cells. All cell lines were purchased from the European Collection of Cell Cultures (Salisbury, UK) except SiHa, which was obtained from the American Tissue Culture Collection (Manassas, VA, USA). The cells were maintained in minimal essential medium supplemented with 10% fetal bovine serum, 1% non-essential amino acids, and 1% penicillin-streptomycin at 37 °C in a humidified atmosphere containing 5% CO2. All media and supplements were obtained from Lonza Group Ltd., (Basel, Switzerland). Cancer cells were seeded into 96-well plates (5000 cells/well), after an overnight incubation the test compound was added in 2 different concentrations (10 µM and 30 µM) and incubated for another 72 h under cell-culturing conditions. Then, 20 μL of 5 mg/mL MTT solution was added to each well and incubated for a further 4 h. The medium was removed, and the precipitated formazan crystals were dissolved in DMSO during 60 min of shaking at 37 °C. As the final step, the absorbance was measured at 545 nm by using a microplate reader (SPECTROStar Nano, BMG Labtech, Offenburg, Germany). Untreated cells were included as controls. […] These agents were additionally tested against NIH/3T3 fibroblasts to obtain results about their cancer selectivity. Two independent experiments were performed with five wells for each condition. Cisplatin (Ebewe GmbH, Unterach, Austria), a clinically used anticancer agent, was used as a positive control. Calculations were performed utilizing the GraphPad Prism 5.01 software (GraphPad Software Inc., San Diego, CA, USA).
# [2] = tested on: SiHa cells (cervical cancer); assay: MTT antiproliferative assay, SiHa; type: cell-based, human; settings: 72 h; for inhibition at 10 µM / inhibition at 30 µM: Homo sapiens, read-out: Growth inhibition (%) ± SEM
# Protocol: as §1, §2
# [3] = tested on: HeLa cells (cervical cancer); assay: MTT antiproliferative assay, HeLa; type: cell-based, human; settings: 72 h; for inhibition at 10 µM / inhibition at 30 µM: Homo sapiens, read-out: Growth inhibition (%) ± SEM
# Protocol: as §1, §2
# [4] = tested on: MDA-MB-231 cells (breast cancer); assay: MTT antiproliferative assay, MDA-MB-231; type: cell-based, human; settings: for inhibition at 10 µM / inhibition at 30 µM: Homo sapiens, read-out: Growth inhibition (%) ± SEM; for inhibition at 10 µM / inhibition at 30 µM / Growth inhibition (%) ± SEM: 72 h
# Protocol: as §1, §2
# [5] = DPPH free radical scavenging assay
# Protocol: As a consequence, in vitro antioxidant activities of selected N-aliphatic- and N-aryl-substituted aminodiols were determined by 1,1-diphenyl-2-picrylhydrazyl (DPPH) assay.
# The antioxidant effects of the aminodiol derivatives were tested on 1,1-diphenyl-2-picrylhydrazyl (DPPH) radicals according to Brand-Williams (1995) [55] and Sánchez-Moreno (2002) [56], with some modifications. […] After a 30 min incubation period at room temperature (25 °C) the absorbances were measured at 517 nm by a microplate reader (SPECTROStar Nano, BMG Labtech, Offenburg, Germany). Trolox (3,4-Dihydro-6-hydroxy-2,5,7,8-tetramethyl-2H-1-benzopyran-2-carboxylic acid) was used as a positive control. All measurements were performed in duplicate with 5 parallels.
# [6] = tested on: NIH/3T3 mouse embryo fibroblast cells; assay: MTT assay on non-cancerous fibroblasts (cancer selectivity); type: cell-based; settings: for Growth inhibition (%) ± SEM: 72 h
# Protocol: as §1, §2
melting point [°C],Structure (SMILES),"inhibition at 10 µM ([1]; A2780, 10 μM) [%]","inhibition at 30 µM ([1]; A2780, 30 μM) [%]",inhibition at 10 µM ([2]; 10 μM) [%],inhibition at 30 µM ([2]; 30 μM) [%],inhibition at 10 µM ([3]; 10 μM) [%],inhibition at 30 µM ([3]; 30 μM) [%],"inhibition at 10 µM ([4]; MDA-MB-231, 10 μM) [%]","inhibition at 30 µM ([4]; MDA-MB-231, 30 μM) [%]",also measured
56 to 59,"CCOC(=O)[C@@H]1c2c(C)cccc2C2CC[C@]3(O)C[C@@]21C[C@]3(O)CN[C@@H](C)c1ccc2ccccc2c1 (stereo partly drawn) [Compound 35, Ethyl (7S,8S,9aR,10S)-7,8-dihydroxy-1-methyl-8-((((S)-1-(naphthalen-2-yl)ethyl)amino)methyl)-4b,6,7,8,9,10-hexahydro-5H-7,9a-methanobenzo[a]azulene-10-carboxylate]",42.7 ± 2.63,95.4 ± 0.48,44.6 ± 0.74,98.41 ± 0.74,40.1 ± 1.21,95.9 ± 2.21,29.4 ± 1.66,96.81 ± 0.82,
221 to 222,"CCOC(=O)[C@H]1c2c(C)cccc2[C@H]2CC[C@]3(O)C[C@@]21C[C@]3(O)Cn1cnc2ccccc21 [Compound 27, Ethyl (4bS,7S,8S,9aR,10R)-8-((1H-benzo[d]imidazol-1-yl)methyl)-7,8-dihydroxy-1-methyl-4b,6,7,8,9,10-hexahydro-5H-7,9a-methanobenzo[a]azulene-10-carboxylate]",< 20,28.9 ± 1.27,26.2 ± 0.46,44.4 ± 1.84,< 20,45.5 ± 1.87,< 20,< 20,
253 to 254,"CCOC(=O)[C@H]1c2c(C)cccc2[C@H]2CC[C@]3(O)C[C@@]21C[C@]3(O)CNCc1ccc(F)cc1 [Compound 9, Ethyl (4bS,7S,8S,9aR,10R)-8-(((4-fluorobenzyl)amino)methyl)-7,8-dihydroxy-1-methyl-4b,6,7,8,9,10-hexahydro-5H-7,9a-methanobenzo[a]azulene-10-carboxylate]",< 20,45.8 ± 1.62,26.6 ± 1.02,53.6 ± 1.92,< 20,30.6 ± 4.19,< 20,< 20,
122 to 123,"CCOC(=O)[C@H]1c2c(C)cccc2[C@H]2CC[C@]3(O)C[C@@]21C[C@]3(O)CNCc1cn(Cc2ccccc2)nn1 [Compound 31, Ethyl (4bS,7S,8S,9aR,10R)-8-((((1-benzyl-1H-1,2,3-triazol-4-yl)methyl)amino)methyl)-7,8-dihydroxy-1-methyl-4b,6,7,8,9,10-hexahydro-5H-7,9a-methanobenzo[a]azulene-10-carboxylate]",< 20,41.4 ± 1.13,< 20,42.9 ± 0.84,< 20,40.2 ± 5.59,< 20,50.8 ± 3.01,
,"Cc1c(C)c2c(c(C)c1O)CCC(C)(C(=O)O)O2 (stereo not shown) [Trolox, 3,4-Dihydro-6-hydroxy-2,5,7,8-tetramethyl-2H-1-benzopyran-2-carboxylic acid, reference compound]",,,,,,,,,"IC50 ([5]; 0.1 mM DPPH, 30 min, 25 °C): 20.2 µM"
55 to 57,"CCOC(=O)[C@H]1c2c(C)cccc2[C@H]2CC[C@]3(O)C[C@@]21C[C@]3(O)CN[C@H](CC)c1ccccc1 [Compound 7, Ethyl (4bS,7S,8S,9aR,10R)-7,8-dihydroxy-1-methyl-8-((((R)-1-phenylpropyl)amino)methyl)-4b,6,7,8,9,10-hexahydro-5H-7,9a-methanobenzo[a]azulene-10-carboxylate]",< 20,65 ± 2.44,28.9 ± 1.16,94.3 ± 1.48,< 20,45 ± 0.97,< 20,70.38 ± 0.07,
125 to 126,"CCOC(=O)[C@H]1c2c(C)cccc2[C@H]2CC[C@]3(O)C[C@@]21CC31CN(Cc2ccccc2)CO1 (stereo partly shown) [Compound 24, Ethyl (4b’S,7’S,9a’R,10’R)-3-benzyl-7’-hydroxy-1’-methyl-4b’,6’,7’,10’-tetrahydro-5’H,9’H-spiro[oxazolidine-5,8’-[7,9a]methanobenzo[a]azulene]-10’-carboxylate]",< 20,34.1 ± 1.77,< 20,31.9 ± 1.28,< 20,53.9 ± 2.21,< 20,42.4 ± 1.46,
101 to 103,"CCOC(=O)[C@H]1c2c(C)cccc2[C@H]2CC[C@]3(O)C[C@@]21C[C@]3(O)Cn1ccnc1 [Compound 26, Ethyl (4bS,7S,8S,9aR,10R)-8-((1H-imidazol-1-yl)methyl)-7,8-dihydroxy-1-methyl-4b,6,7,8,9,10-hexahydro-5H-7,9a-methanobenzo[a]azulene-10-carboxylate]",< 20,< 20,< 20,25.9 ± 2.53,< 20,< 20,< 20,< 20,
114 to 115,"CCOC(=O)[C@H]1c2c(C)cccc2[C@H]2CC[C@]3(O)C[C@@]21C[C@]3(O)CN[C@@H](CC)c1ccccc1 [Compound 8, Ethyl (4bS,7S,8S,9aR,10R)-7,8-dihydroxy-1-methyl-8-((((S)-1-phenylpropyl)amino)methyl)-4b,6,7,8,9,10-hexahydro-5H-7,9a-methanobenzo[a]azulene-10-carboxylate]",39.5 ± 1.27,96.38 ± 0.13,29.7 ± 1.54,98.38 ± 0.44,27.5 ± 0.41,98.05 ± 0.07,< 20,97.52 ± 0.67,
84 to 86,"CCOC(=O)[C@H]1c2c(C)cccc2[C@H]2CC[C@]3(O)C[C@@]21C[C@]3(O)CN[C@@H](C)c1ccc(F)cc1 [Compound 10, Ethyl (4bS,7S,8S,9aR,10R)-8-((((S)-1-(4-fluorophenyl)ethyl)amino)methyl)-7,8-dihydroxy-1-methyl-4b,6,7,8,9,10-hexahydro-5H-7,9a-methanobenzo[a]azulene-10-carboxylate]",22.2 ± 1.93,96.46 ± 0.76,39.1 ± 1.82,97.08 ± 0.08,38.5 ± 2.02,97.93 ± 0.11,31.2 ± 0.77,94.5 ± 1.05,
,"N.N.[Cl][Pt][Cl] [Cisplatin, reference compound]",,,,,,,,,"Growth inhibition (%) ± SEM ([1]; A2780, 10 μM): 83.57 ± 1.21%; Growth inhibition (%) ± SEM ([1]; A2780, 30 μM): 95.02 ± 0.28%; IC50 ([1]; A2780, 72 h): 1.3 µM; Growth inhibition (%) ± SEM ([6]; NIH/3T3, 10 μM): 73.88 ± 1.63%; Growth inhibition (%) ± SEM ([6]; NIH/3T3, 30 μM): 97.10 ± 0.15%; IC50 ([6]; NIH/3T3, 72 h): 5.49 µM; Growth inhibition (%) ± SEM ([2]; 10 μM): 88.64 ± 0.50%; Growth inhibition (%) ± SEM ([2]; 30 μM): 90.18 ± 1.78%; IC50 [2]: 7.84 µM; Growth inhibition (%) ± SEM ([3]; 10 μM): 42.61 ± 2.33%; Growth inhibition (%) ± SEM ([3]; 30 μM): 99.93 ± 0.26%; IC50 [3]: 12.4 µM; Growth inhibition (%) ± SEM ([4]; MDA-MB-231, 10 μM): 67.51 ± 1.01%; Growth inhibition (%) ± SEM ([4]; MDA-MB-231, 30 μM): 87.75 ± 1.10%; IC50 ([4]; MDA-MB-231, 72 h): 3.74 µM"
,"CCOC(=O)[C@H]1c2c(C)cccc2[C@H]2CC[C@]3(O)C[C@@]21C[C@]3(O)Cn1nnc2ccccc21 [Compound 30, Ethyl (4bS,7S,8S,9aR,10R)-8-((1H-benzo[d][1,2,3]triazol-1-yl)methyl)-7,8-dihydroxy-1-methyl-4b,6,7,8,9,10-hexahydro-5H-7,9a-methanobenzo[a]azulene-10-carboxylate]",< 20,26.8 ± 3.79,< 20,29.5 ± 2,< 20,< 20,< 20,< 20,DPPH scavenging activity ([5]; concentration range 3–100 µM): None of the six molecules elicited considerable activity
